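Method: 48-hour compound exposure of cells in 96-well plates, five concentrations, linear interpolation of endpoints. TGI: total growth inhibition.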
Legend:
Assay in all cases: growth of human tumour cells (NCI), 48 h
[1] = system: 786-0 renal
[2] = system: A498 renal
[3] = system: A549 NSCLC
[4] = system: ACHN renal
[5] = system: BT-549 breast
[6] = system: CAKI-1 renal
[7] = system: CCRF-CEM leukemia
[8] = system: COLO 205 colon
[9] = system: DU-145 prostate
[10] = system: EKVX NSCLC
[11] = system: HCC-2998 colon
[12] = system: HCT-116 colon
[13] = system: HCT-15 colon
[14] = system: HL-60(TB) leukemia
[15] = system: HOP-62 NSCLC
[16] = system: HOP-92 NSCLC
[17] = system: HS 578T breast
[18] = system: HT29 colon
[19] = system: IGROV1 ovarian
[20] = system: K-562 leukemia
[21] = system: KM12 colon
[22] = system: LOX IMVI melanoma
[23] = system: M14 melanoma
[24] = system: MALME-3M melanoma
[25] = system: MCF7 breast
[26] = system: MDA-MB-231 breast
[27] = system: MDA-MB-435
[28] = system: MDA-N
[29] = system: MOLT-4 leukemia
[30] = system: NCI-H226 lung
[31] = system: NCI-H23 lung
[32] = system: NCI-H460 lung
[33] = system: NCI-H522 lung
[34] = system: NCI/ADR-RES ovarian
[35] = system: OVCAR-3 ovarian
[36] = system: OVCAR-4 ovarian
[37] = system: OVCAR-5 ovarian
[38] = system: OVCAR-8 ovarian
[39] = system: PC-3 prostate
[40] = system: RPMI-8226 leukemia
[41] = system: RXF 393 renal
[42] = system: SF-268 CNS
[43] = system: SF-295 CNS
[44] = system: SF-539 CNS
[45] = system: SK-MEL-2 melanoma
[46] = system: SK-MEL-28 melanoma
[47] = system: SK-MEL-5 melanoma
[48] = system: SK-OV-3 ovarian
[49] = system: SN12C renal
[50] = system: SNB-19 CNS
[51] = system: SNB-75 CNS
[52] = system: SR leukemia
[53] = system: SW-620 colon
[54] = system: T-47D breast
[55] = system: TK-10 renal
[56] = system: U251 CNS
[57] = system: UACC-257 melanoma
[58] = system: UACC-62 melanoma
[59] = system: UO-31 renal

CC(C)C(=O)/C=C/c1ccc(Cl)cc1Cl
TGI [1]: 27.2 µM
TGI [2]: 31.8 µM
TGI [3]: 30.4 µM
TGI [4]: 29.7 µM
TGI [5]: 14.9 µM
TGI [6]: 24.8 µM
TGI [7]: 50.7 µM
TGI [8]: 32.7 µM
TGI [9]: 27.2 µM
TGI [10]: 31 µM
TGI [11]: 30 µM
TGI [12]: 10 µM
TGI [13]: 25.2 µM
TGI [14]: > 100 µM
TGI [15]: 33.1 µM
TGI [16]: 30.8 µM
TGI [17]: 22.2 µM
TGI [18]: 13.4 µM
TGI [19]: 28.4 µM
TGI [20]: > 100 µM
TGI [21]: 13.7 µM
TGI [22]: 13.5 µM
TGI [23]: 20 µM
TGI [24]: 28.2 µM
TGI [25]: 14.2 µM
TGI [26]: 38.7 µM
TGI [27]: 10 µM
TGI [28]: 7.06 µM
TGI [29]: 96.4 µM
TGI [30]: 41 µM
TGI [31]: 26.8 µM
TGI [32]: 23.4 µM
TGI [33]: 22.8 µM
TGI [34]: 54.6 µM
TGI [35]: 16.1 µM
TGI [36]: 20.9 µM
TGI [37]: 30.7 µM
TGI [38]: 22.8 µM
TGI [39]: 32.8 µM
TGI [40]: > 100 µM
TGI [41]: 22.2 µM
TGI [42]: 22.5 µM
TGI [43]: 30.9 µM
TGI [44]: 34 µM
TGI [45]: 27.6 µM
TGI [46]: 30.6 µM
TGI [47]: 27.9 µM
TGI [48]: 33.7 µM
TGI [49]: 23 µM
TGI [50]: 29.3 µM
TGI [51]: 27.7 µM
TGI [52]: > 100 µM
TGI [53]: 7.92 µM
TGI [54]: 25.7 µM
TGI [55]: 27.2 µM
TGI [56]: 25.2 µM
TGI [57]: 26 µM
TGI [58]: 25.7 µM
TGI [59]: 23.5 µM

Cc1cc(=O)[nH]c(S(=O)(=O)NC(=O)Nc2cccc(Cl)c2)n1
TGI [1]: > 100 µM
TGI [2]: > 100 µM
TGI [3]: > 100 µM
TGI [4]: > 100 µM
TGI [5]: > 100 µM
TGI [6]: > 22.3 µM
TGI [7]: > 100 µM
TGI [8]: > 100 µM
TGI [9]: > 100 µM
TGI [10]: > 100 µM
TGI [11]: > 100 µM
TGI [12]: > 100 µM
TGI [13]: > 100 µM
TGI [14]: > 31.2 µM
TGI [15]: > 100 µM
TGI [16]: > 100 µM
TGI [17]: > 100 µM
TGI [18]: > 100 µM
TGI [19]: > 100 µM
TGI [20]: > 100 µM
TGI [21]: 32.3 µM
TGI [22]: > 100 µM
TGI [23]: > 100 µM
TGI [24]: > 100 µM
TGI [25]: > 100 µM
TGI [26]: > 100 µM
TGI [27]: > 48.3 µM
TGI [28]: > 100 µM
TGI [29]: > 100 µM
TGI [30]: > 100 µM
TGI [31]: > 100 µM
TGI [32]: > 100 µM
TGI [33]: > 100 µM
TGI [34]: > 100 µM
TGI [35]: > 100 µM
TGI [36]: > 41.7 µM
TGI [37]: > 100 µM
TGI [38]: > 100 µM
TGI [39]: > 100 µM
TGI [40]: > 100 µM
TGI [41]: > 100 µM
TGI [42]: > 100 µM
TGI [43]: > 100 µM
TGI [44]: > 100 µM
TGI [45]: > 100 µM
TGI [46]: > 100 µM
TGI [47]: > 100 µM
TGI [48]: > 100 µM
TGI [49]: > 100 µM
TGI [50]: > 100 µM
TGI [51]: > 100 µM
TGI [52]: > 100 µM
TGI [53]: > 100 µM
TGI [54]: > 100 µM
TGI [55]: > 100 µM
TGI [56]: > 100 µM
TGI [57]: > 100 µM
TGI [58]: > 100 µM
TGI [59]: 13.9 µM

CC(NC(=O)c1ccc(OP(=O)(OCc2ccc([N+](=O)[O-])o2)N(C)CCCCCl)cc1)c1ccc(OCC2CCCCC2)c(C(N)=O)c1 (stereo unspecified)
TGI [1]: > 37.2 µM
TGI [2]: 63.2 µM
TGI [3]: > 21.4 µM
TGI [4]: > 35.4 µM
TGI [5]: 5.94 µM
TGI [6]: > 58 µM
TGI [7]: 0.842 µM
TGI [8]: 6.24 µM
TGI [9]: > 29 µM
TGI [10]: > 100 µM
TGI [11]: > 21.7 µM
TGI [12]: 9.5 µM
TGI [13]: 8.14 µM
TGI [14]: 12.3 µM
TGI [15]: 36.7 µM
TGI [16]: 4.75 µM
TGI [17]: > 41.6 µM
TGI [18]: 7.85 µM
TGI [19]: 8.34 µM
TGI [20]: 18 µM
TGI [21]: 13.5 µM
TGI [22]: 5.43 µM
TGI [23]: 22.7 µM
TGI [24]: 10.7 µM
TGI [25]: 17.1 µM
TGI [26]: 9.66 µM
TGI [27]: 6.3 µM
TGI [28]: 24 µM
TGI [29]: 6.89 µM
TGI [30]: 26.2 µM
TGI [31]: > 52.2 µM
TGI [32]: 14.5 µM
TGI [33]: 6.44 µM
TGI [34]: > 100 µM
TGI [35]: 15.7 µM
TGI [36]: 17.7 µM
TGI [37]: > 47.6 µM
TGI [38]: > 74.4 µM
TGI [39]: 49.1 µM
TGI [40]: 3.24 µM
TGI [41]: 9.25 µM
TGI [42]: 10.9 µM
TGI [43]: > 32.4 µM
TGI [44]: 10.1 µM
TGI [45]: 14.5 µM
TGI [46]: 7 µM
TGI [47]: 6.14 µM
TGI [48]: > 100 µM
TGI [49]: 6.15 µM
TGI [50]: > 100 µM
TGI [51]: 25.3 µM
TGI [52]: 4.43 µM
TGI [53]: > 43.1 µM
TGI [54]: > 20.1 µM
TGI [55]: 60.9 µM
TGI [56]: > 32.3 µM
TGI [57]: > 39.8 µM
TGI [58]: 7.39 µM
TGI [59]: 6.39 µM

COc1ccccc1CC1(O)OC(=O)c2ccccc21 (stereo unspecified)
TGI [1]: > 100 µM
TGI [2]: > 100 µM
TGI [3]: > 100 µM
TGI [4]: > 100 µM
TGI [5]: > 100 µM
TGI [6]: > 100 µM
TGI [7]: > 100 µM
TGI [8]: > 100 µM
TGI [9]: > 100 µM
TGI [10]: > 100 µM
TGI [11]: > 100 µM
TGI [12]: > 100 µM
TGI [13]: > 100 µM
TGI [14]: > 100 µM
TGI [15]: > 100 µM
TGI [16]: > 100 µM
TGI [17]: > 100 µM
TGI [18]: > 100 µM
TGI [19]: > 100 µM
TGI [20]: > 100 µM
TGI [21]: > 100 µM
TGI [22]: > 100 µM
TGI [23]: > 100 µM
TGI [24]: > 100 µM
TGI [25]: > 100 µM
TGI [26]: > 100 µM
TGI [27]: > 100 µM
TGI [28]: > 100 µM
TGI [29]: > 100 µM
TGI [30]: > 100 µM
TGI [31]: > 100 µM
TGI [32]: > 100 µM
TGI [33]: > 100 µM
TGI [34]: > 100 µM
TGI [35]: > 100 µM
TGI [36]: > 100 µM
TGI [37]: > 100 µM
TGI [38]: > 100 µM
TGI [39]: > 100 µM
TGI [40]: > 100 µM
TGI [41]: > 100 µM
TGI [42]: > 100 µM
TGI [43]: > 100 µM
TGI [44]: > 100 µM
TGI [45]: > 100 µM
TGI [46]: > 100 µM
TGI [47]: > 100 µM
TGI [48]: > 100 µM
TGI [49]: > 100 µM
TGI [50]: > 100 µM
TGI [51]: > 100 µM
TGI [52]: > 100 µM
TGI [53]: > 100 µM
TGI [54]: > 100 µM
TGI [55]: > 100 µM
TGI [56]: > 100 µM
TGI [57]: > 100 µM
TGI [58]: > 100 µM
TGI [59]: > 100 µM
